PMC8881610 (Nature Communications, 2022)
Where a chain is given by its changes, count along the chain named.

Experiments:
GIPR [1] = target: T1, GIPR (Homo sapiens, UniProt P48546, F127A); assay: cAMP accumulation assay (LANCE Ultra cAMP kit), GIPR WT, mutant or modified constructs; format: cell-based; parameters: acylated tirzepatide to the full-length or modified; Flag; expressed in transfected cells; host or cells: HEK293T; details: GIPR F127A, HEK293T
T1 sequence (P48546 22-466 F127A): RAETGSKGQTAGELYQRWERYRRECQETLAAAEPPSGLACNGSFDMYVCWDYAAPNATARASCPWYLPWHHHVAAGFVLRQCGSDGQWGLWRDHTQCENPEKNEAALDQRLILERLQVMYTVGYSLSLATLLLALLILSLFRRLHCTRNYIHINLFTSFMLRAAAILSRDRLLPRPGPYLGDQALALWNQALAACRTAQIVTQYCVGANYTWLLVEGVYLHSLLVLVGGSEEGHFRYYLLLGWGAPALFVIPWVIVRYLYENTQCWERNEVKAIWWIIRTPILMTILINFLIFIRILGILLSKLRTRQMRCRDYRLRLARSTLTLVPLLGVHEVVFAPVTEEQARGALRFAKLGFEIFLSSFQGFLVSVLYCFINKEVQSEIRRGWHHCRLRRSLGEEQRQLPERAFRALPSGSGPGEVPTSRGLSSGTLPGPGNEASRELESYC
Method in brief: (§1)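 HEK293T cells transiently transfected with human GIPR WT or mutant constructs (pcDNA3.1), used after 24 h. The cells were stimulated with peptide agonists for 40 min at RT in HBSS with 5 mM HEPES, 0.1% BSA or casein, and 0.5 mM IBMX. cAMP was read by LANCE Ultra TR-FRET (Eu-cAMP tracer/ULight anti-cAMP, 1 h RT, 620/650 nm).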

GIPR [2] = target: T2, GIPR (Homo sapiens, UniProt P48546, Q285A); assay: as above; format: cell-based; parameters: acylated tirzepatide to the full-length or modified; Flag; expressed in transfected cells; host or cells: HEK293T; details: GIPR Q285A, HEK293T
T2 sequence (P48546 22-466 Q285A): T1 sequence (P48546 22-466 F127A) with A106F, Q264A
Method in brief: as §1

GIPR [3] = target: T3, GIPR (Homo sapiens, UniProt P48546, Q30A); assay: as above; format: cell-based; parameters: acylated tirzepatide to the full-length or modified; Flag; expressed in transfected cells; host or cells: HEK293T; details: GIPR Q30A, HEK293T
T3 sequence (P48546 22-466 Q30A): T1 sequence (P48546 22-466 F127A) with Q9A, A106F
Method in brief: as §1

[4] = clinical trial outcome; Drugs@FDA, ChemBL, ClinicalTrials.gov; cited from earlier work
[5] = read-out: cAMP pEC50 (converted)

CCCCCCCCCCCCCCCC(=O)N[C@@H](CCC(=O)NCCCC[C@H](NC(=O)[C@H](CC(=O)O)NC(=O)[C@H](CO)NC(=O)[C@@H](NC(=O)[C@H](Cc1ccccc1)NC(=O)[C@@H](NC(=O)CNC(=O)[C@H](CCC(N)=O)NC(=O)C(C)(C)NC(=O)[C@@H](N)Cc1c[nH]cn1)[C@@H](C)O)[C@@H](C)O)C(=O)N[C@@H](CO)C(=O)N[C@@H](CCCCN)C(=O)N[C@@H](Cc1ccc(O)cc1)C(=O)N[C@@H](CC(C)C)C(=O)N[C@@H](CC(=O)O)C(=O)N[C@@H](CCC(=O)O)C(=O)N[C@@H](CCCNC(=N)N)C(=O)N[C@@H](C)C(=O)N[C@@H](C)C(=O)N[C@@H](CCC(N)=O)C(=O)N[C@@H](CC(=O)O)C(=O)N[C@@H](Cc1ccccc1)C(=O)N[C@H](C(=O)N[C@@H](CCC(N)=O)C(=O)N[C@@H](Cc1c[nH]c2ccccc12)C(=O)N[C@@H](CC(C)C)C(=O)N[C@@H](CC(C)C)C(=O)N[C@@H](CC(=O)O)C(=O)NCC(=O)NCC(=O)N1CCC[C@H]1C(=O)N[C@@H](CO)C(=O)N[C@@H](CO)C(=O)NCC(=O)N[C@@H](C)C(=O)N1CCC[C@H]1C(=O)N1CCC[C@H]1C(=O)N1CCC[C@H]1C(=O)N[C@@H](CO)C(N)=O)C(C)C)C(=O)O [Peptide 20]
EC50 (GIPR [1]; [5]): 0.00457 nM | Emax (GIPR [1]; HEK-293T): 100 ± 1.64% | EC50 (GIPR [2]; [5]): 0.0417 nM | Emax (GIPR [2]; HEK-293T): 97.6 ± 1.37% | EC50 (GIPR [3]; [5]): 0.0427 nM | Emax (GIPR [3]; HEK-293T): 100 ± 1.79%

CC[C@H](C)[C@H](NC(=O)[C@H](CC(C)C)NC(=O)[C@H](Cc1c[nH]c2ccccc12)NC(=O)[C@H](CCC(N)=O)NC(=O)[C@@H](NC(=O)[C@H](Cc1ccccc1)NC(=O)[C@H](C)NC(=O)[C@H](CCCCNC(=O)COCCOCCNC(=O)COCCOCCNC(=O)CC[C@H](NC(=O)CCCCCCCCCCCCCCCCCCC(=O)O)C(=O)O)NC(=O)[C@H](CCC(N)=O)NC(=O)[C@H](C)NC(=O)[C@@H](NC(=O)[C@H](CCCCN)NC(=O)[C@H](CC(=O)O)NC(=O)[C@H](CC(C)C)NC(=O)C(C)(C)NC(=O)[C@@H](NC(=O)[C@H](CO)NC(=O)[C@H](Cc1ccc(O)cc1)NC(=O)[C@H](CC(=O)O)NC(=O)[C@H](CO)NC(=O)[C@@H](NC(=O)[C@H](Cc1ccccc1)NC(=O)[C@@H](NC(=O)CNC(=O)[C@H](CCC(=O)O)NC(=O)C(C)(C)NC(=O)[C@@H](N)Cc1ccc(O)cc1)[C@@H](C)O)[C@@H](C)O)[C@@H](C)CC)[C@@H](C)CC)C(C)C)C(=O)N[C@@H](C)C(=O)NCC(=O)NCC(=O)N1CCC[C@H]1C(=O)N[C@@H](CO)C(=O)N[C@@H](CO)C(=O)NCC(=O)N[C@@H](C)C(=O)N1CCC[C@H]1C(=O)N1CCC[C@H]1C(=O)N1CCC[C@H]1C(=O)N[C@@H](CO)C(N)=O [Tirzepatide]
Body weight [4]: -5.30 ~ -5.70 kg or % | Fasting plasma glucose [4]: -60.70 ~ -74.20 mg/dL
